Assays:
IgL-λ dimers [1] = test: IgL dimerization immunoblot under nonreducing conditions in MM.1S cells; assay type: cell-based, human; details: 3 hours, lenalidomide 10 μM or H2O2 25 μM
From the text: (§1) Proteins were transferred to polyvinylidene fluoride membranes (Bio-Rad).

Horseradish peroxidase = target: T1, Horseradish peroxidase (Armoracia rusticana, UniProt P00433); test: HRP/Amplex Red in-vitro assay; assay type: biochemical; details: 10 μM drug, 5 μM H2O2, 30 minutes
T1 sequence (P00433 31-338 limits assumed): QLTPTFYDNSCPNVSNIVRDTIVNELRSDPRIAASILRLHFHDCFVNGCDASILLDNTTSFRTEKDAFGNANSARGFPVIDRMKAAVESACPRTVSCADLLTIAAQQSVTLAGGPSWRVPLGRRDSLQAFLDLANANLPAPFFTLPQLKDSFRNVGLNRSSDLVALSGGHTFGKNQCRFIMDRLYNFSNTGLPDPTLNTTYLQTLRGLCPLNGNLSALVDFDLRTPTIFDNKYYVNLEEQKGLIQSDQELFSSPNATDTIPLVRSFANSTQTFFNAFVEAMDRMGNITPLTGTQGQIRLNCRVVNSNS
Procedure: (§2) After 30 minutes, plates were read for fluorescence at 530 nm excitation and 590 nm emission with plate reader (Biotek Cytation3). For determining intra-cellular peroxidase activity by Amplex Red, cells were washed and mixed with Amplex Red reagent (50 μM) in HBSS buffer and plated 100,000 cells per well into 96 well plate, four wells for each condition. […] The DMSO control included H2O2 (100 μM). […] After specific time periods, the plates were read for fluorescence intensity using plate reader.

[2] = system: ER stress markers in OPM2-NT and OPM2-shCRBN cells; test: ER stress immunoblot in OPM2-NT and OPM2-shCRBN cells; assay type: cell-based, human
From the text: as §1

IgL-λ mRNA = test: Real-time PCR for IgL-λ mRNA; assay type: cell-based, human; details: FIG. 8B; 10, 30, or 50 μM, 72 hours
Procedure: (§3) Total RNA from HMCLs treated with lenalidomide was isolated using the Qiagen RNeasy mini kit. RNA (1 μg) was used for cDNA synthesis using iScript Reverse Transcription Supermix (Bio-Rad). Real-time polymerase chain reaction (PCR) was performed using the SYBR green method. The following primers were used for amplification: […]
(§4) The fold change of the mRNA expression was calculated from the difference between treated and untreated cells, after normalizing to an endogenous control (β-actin). Primers encompassing the spliced sequences in XBP1 mRNA were used for PCR amplification, and products were separated by electrophoresis through a 2.5% agarose gel and visualized by ethidium bromide staining. All reactions were conducted in triplicate.

[3] = system: OPM2-NT and OPM2-shCRBN cells; test: MTT assay in OPM2-NT and OPM2-shCRBN cells; assay type: cell-based, human; details: OPM2-NT vs OPM2-shCRBN, increasing concentrations, 3 days
From the text: (§5) The data were normalized to the DMSO-treated group.

IgL-λ = IgL-λ secretion and intracellular level (immunoblot, ELISA) in OPM2-NT and OPM2-shCRBN cells; assay type: cell-based, human
From the text: as §1

[4] = system: intracellular peroxidases in HMCLs; test: Intra-cellular peroxidase activity by Amplex Red in HMCLs; assay type: cell-based, human; details: different myeloma cell lines; thalidomide 20 μM, lenalidomide 20 μM, pomalidomide 10 μM; 40 to 60 minutes
Procedure: as §2

MM.1Sres cells = test: MTT assay in MM.1Sres cells; assay type: cell-based, human
From the text: as §5

MM.1S cells [5] = test: Intracellular ROS by DCFDA flow cytometry; assay type: cell-based, human; details: MM.1S cells pretreated with DCFDA 30 minutes; lenalidomide 10 μM vs vehicle
Procedure: Post-treatment reactive oxygen species (ROS) levels were determined using the cell-permeable fluorogenic probe DCFDA (Invitrogen Biosciences). Briefly, million cells per 2 mL (2 million cells in 4 mL medium) were cultured overnight. DCFDA (50 μM) was added to suspended cells and incubated for 30 minutes in the dark. Cells were collected and washed once with phosphate-buffered saline (PBS) and split into 2 FACS tubes. […] Cells were analyzed using a FACSCalibur system (Becton and Dickinson), with excitation and emission spectra set at 488 and 530 nm, respectively. CellQuest software was used to calculate H2O2 production by measuring the increase in mean fluorescence.

XBP-1 mRNA = XBP-1 mRNA splicing by PCR; assay type: cell-based, human; details: lenalidomide 10 μM, 3 days
Procedure: as §3, §4

KMS11 cells = test: MTT assay in KMS11 cells; assay type: cell-based, human; details: KMS11, 3 days
From the text: as §5

Bip = Bip immunoblot in other isogenic HMCLs (MM.1S/MM.1Sres, KMS18-NT/KMS18-shCRBN); assay type: cell-based, human; details: CRBN-positive vs CRBN-negative cells, 3 days
From the text: as §1

RPMI-8226 cells = test: MTT assay in RPMI-8226 cells; assay type: cell-based, human; details: RPMI-8226, 3 days
From the text: as §5

JJN3 cells = test: MTT assay in JJN3 cells; assay type: cell-based, human; details: JJN3, 3 days
From the text: as §5

MM.1S cells [6] = test: MTT assay in MM.1S cells; assay type: cell-based, human; details: 3 days
From the text: as §5

IgL-λ dimers [7] = test: IgL dimerization immunoblot in MM.1S and MM.1Sres cells; assay type: cell-based, human; details: MM.1S and MM.1Sres treated for 3 days
From the text: as §1

For `Nc1cccc2c1CN(C1CCC(=O)NC1=O)C2=O` (stereo not drawn) [lenalidomide], which “formation of IgL-λ dimers” value (IgL-λ dimers [1]) is on record?
The value was “increased formation of IgL-λ dimers”.

And the “decomposition of H2O2 by horseradish peroxidase (Amplex Red to resorufin)” value (Horseradish peroxidase)?
The value was “inhibited”.

What about the ER stress response ([2]; 3 days, increasing concentrations (10, 30, or 50 μM)) of the same compound?
Its ER stress response is “an ER stress response occurred in OPM2-NT cells, but not in CRBN-knockdown cells”.

What about the GRP78/BiP protein ([2]; CRBN-positive cells, 3 days) of the same compound?
The GRP78/BiP protein was “accumulated”.

What about the IRE1α protein level ([2]; CRBN-positive cells, 3 days) of the same compound?
The IRE1α protein level was “markedly decreased”.

And the p53 protein levels ([2]; CRBN-positive cells, 3 days)?
The p53 protein levels was “decreased”.

And the “p53 and PARP levels” value ([2]; CRBN-positive lenalidomide-sensitive cells, 6 days)?
The value was “complete degradation of p53 and PARP proteins”.

What about the “IgL-λ mRNA expression” value (IgL-λ mRNA) of the same compound?
The value was “unchanged”.

And the “CRBN dependence of cytotoxicity (MTT)” value [3]?
The value was “CRBN dependent”.

What about the “total intracellular IgL protein” value (IgL-λ; FIG. 8C, 72 hours) of the same compound?
Its value is “increased total intracellular IgL protein”.

And the “secretion of IgG-λ / IgL-λ” value (IgL-λ; FIG. 8D-E)?
Its value is “decreased secretion”.

And the “intracellular H2O2 decomposition mediated by peroxidases” value [4]?
The value was “inhibit intracellular H2O2 decomposition”.

What about the “sensitivity of cell line (MTT)” value (MM.1Sres cells) of the same compound?
The value was “resistant”.

And the “intracellular H2O2 (DCF fluorescence by FACS)” value (MM.1S cells [5])?
Its value is “increasing intracellular H2O2”.

What about the “mRNA splicing of XBP-1” value (XBP-1 mRNA) of the same compound?
The value was “more evident in OPM2-NT cells than CRBN-knockdown cells”.

And the “sensitivity of cell line (MTT)” value (KMS11 cells)?
The value was “sensitive”.

And the Bip protein (Bip)?
The Bip protein was “accumulation of Bip protein in CRBN-positive cells, but not in CRBN-negative cells”.

And the “sensitivity of cell line (MTT)” value (RPMI-8226 cells)?
Its value is “resistant”.

And the “sensitivity of cell line (MTT)” value (JJN3 cells)?
The value was “resistant”.

What about the “sensitivity of cell line (MTT)” value (MM.1S cells [6]) of the same compound?
Its value is “hypersensitive”.

What about the IgL-λ dimers (IgL-λ dimers [7]) of the same compound?
Its IgL-λ dimers is “IgL-λ dimers were observed only in MM.1S”.

From patent US20180172712A1, “METHODS AND MATERIALS FOR ASSESSING HYDROGEN PEROXIDE ACCUMULATION IN CELLS” (Mayo Foundation for Medical Education and Research, priority 2015, published 2018)
